System: androgen receptor (AR) in LNCaP and/or VCaP cells
Assay: Androgen Receptor ELISA assay (AR degradation)
Format: cell-based
Settings: degradation of AR ELISA in LNCaP and/or VCaP cells; Table 2C; read-out: DC50 Code*
Summary of the method: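 VCaP cells grown ≥3 days, then treated 5 h with compound in media containing 1 nM R1881 (10× stock). Cells lysed and AR quantified by sandwich ELISA (mouse AR detection Ab, HRP anti-mouse, TMB). DC50 and Dmax derived from AR degradation.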

Question: Which DC50 does the source give for `CC(C)N(CC1CCN(c2cnc(C(=O)N[C@H]3C(C)(C)[C@H](Oc4ccc(C#N)c(Cl)c4)C3(C)C)cn2)CC1)[C@H]1C[C@H](Oc2ccc3c(c2)C(=O)N(C2CCC(=O)NC2=O)C32CC2)C1` (some centres unmarked) [compound 141, N-((1r,3r)-3-(3-chloro-4-cyanophenoxy)-2,2,4,4-tetramethylcyclobutyl)-5-(4-((((1r,3r)-3-((2′-(2,6-dioxopiperidin-3-yl)-3′-oxospiro[cyclopropane-1,1′-isoindolin]-5′-yl)oxy)cyclobutyl) (isopropyl)amino)methyl)piperidin-1-yl)pyrazine-2-carboxamide] here?
Answer: The DC50 was over 100 nM.

Question: With `CC1(C)[C@H](NC(=O)c2ccc(N3CCC(CN4CCN(c5ccc6c(c5)C(=O)N(C5CCC(=O)N(O)C5=O)C6=O)CC4)CC3)cc2)C(C)(C)[C@H]1Oc1ccc(C#N)c(Cl)c1` (some centres unmarked) [compound 142, N-((1r,3r)-3-(3-chloro-4-cyanophenoxy)-2,2,4,4-tetramethylcyclobutyl)-4-(4-((4-(2-(1-hydroxy-2,6-dioxopiperidin-3-yl)-1,3-dioxoisoindolin-5-yl)piperazin-1-yl)methyl)piperidin-1-yl)benzamide] as the compound, how does the DC50 read?
Answer: Its DC50 is over 100 nM.

Question: For `Cc1cc(O[C@H]2C(C)(C)[C@H](NC(=O)c3cnc(N4CC(CCN5CCC(Oc6ccc7c(c6)C(=O)N(C6CCC(=O)NC6=O)C7=O)CC5)C4)cn3)C2(C)C)cc(C)c1C#N` (some centres unmarked) [compound 143, N-((1r,3r)-3-(4-cyano-3,5-dimethylphenoxy)-2,2,4,4-tetramethylcyclobutyl)-5-(3-(2-(4-((2-(2,6-dioxopiperidin-3-yl)-1,3-dioxoisoindolin-5-yl)oxy)piperidin-1-yl)ethyl)azetidin-1-yl)pyrazine-2-carboxamide], which DC50 is on record?
Answer: Its DC50 is over 100 nM.

Question: Which DC50 does the source give for `COCCOCCOCCN(CC1CCN(c2ncc(C(=O)N[C@H]3C(C)(C)[C@H](Oc4cc(C)c(C#N)c(C)c4)C3(C)C)cn2)CC1)[C@H]1C[C@H](Oc2ccc3c(c2)C(=O)N(C2CCC(=O)NC2=O)C3=O)C1` (some centres unmarked) [compound 144, N-((1r,3r)-3-(4-cyano-3,5-dimethylphenoxy)-2,2,4,4-tetramethylcyclobutyl)-2-(4-(2-((1r,3r)-3-((2-(2,6-dioxopiperidin-3-yl)-1,3-dioxoisoindolin-5-yl)oxy)cyclobutyl)-5,8,11-trioxa-2-azadodecyl)piperidin-1-yl)pyrimidine-5-carboxamide] here?
Answer: Its DC50 is under 1 nM.

Question: With `COCCOCCOCCOCCN(CC1CCN(c2ncc(C(=O)N[C@H]3C(C)(C)[C@H](Oc4cc(C)c(C#N)c(C)c4)C3(C)C)cn2)CC1)[C@H]1C[C@H](Oc2ccc3c(c2)C(=O)N(C2CCC(=O)NC2=O)C3=O)C1` (some centres unmarked) [compound 145, N-((1r,3r)-3-(4-cyano-3,5-dimethylphenoxy)-2,2,4,4-tetramethylcyclobutyl)-2-(4-(2-((1r,3r)-3-((2-(2,6-dioxopiperidin-3-yl)-1,3-dioxoisoindolin-5-yl)oxy)cyclobutyl)-5,8,11,14-tetraoxa-2-azapentadecyl)piperidin-1-yl)pyrimidine-5-carboxamide] as the compound, how does the DC50 read?
Answer: The DC50 was under 1 nM.

Question: For `CCN(CC1CCN(c2ccc(C(=O)N[C@H]3C(C)(C)[C@H](Oc4ccc(C#N)c(OC)c4)C3(C)C)cc2)CC1)[C@H]1C[C@H](Oc2ccc3c(c2)C(=O)N(C2CCC(=O)NC2=O)C3=O)C1` (some centres unmarked) [compound 147, N-((1r,3r)-3-(4-cyano-3-methoxyphenoxy)-2,2,4,4-tetramethylcyclobutyl)-4-(4-((((1r,3r)-3-((2-(2,6-dioxopiperidin-3-yl)-1,3-dioxoisoindolin-5-yl)oxy)cyclobutyl)(ethyl)amino)methyl)piperidin-1-yl)benzamide], which DC50 is on record?
Answer: The DC50 was under 1 nM.

Question: Which DC50 does the source give for `Cc1cc(O[C@H]2C(C)(C)[C@H](NC(=O)c3ccc(CN4CCOC[C@@H]4CN(C)[C@H]4C[C@H](Oc5ccc6c(c5)C(=O)N(C5CCC(=O)NC5=O)C6=O)C4)cc3)C2(C)C)cc(C)c1C#N` (stereo partly drawn) [compound 148, N-((1r,3R)-3-(4-cyano-3,5-dimethylphenoxy)-2,2,4,4-tetramethylcyclobutyl)-4-(((3R)-3-((((1r,3R)-3-((2-(2,6-dioxopiperidin-3-yl)-1,3-dioxoisoindolin-5-yl)oxy)cyclobutyl) (methyl)amino)methyl)morpholino)methyl) benzamide] here?
Answer: Its DC50 is under 1 nM.

Question: How did the DC50 turn out when `Cc1cc(O[C@H]2C(C)(C)[C@H](NC(=O)c3ccc(CN4CCOC[C@@H]4CN(C)[C@H]4C[C@H](Oc5ccc6c(c5)C(=O)N(C5CCC(=O)NC5=O)C6=O)C4)cc3)C2(C)C)cc(C)c1C#N` (stereo partly drawn) [compound 151, N-((1r,3S)-3-(4-cyano-3,5-dimethylphenoxy)-2,2,4,4-tetramethylcyclobutyl)-4-(((3S)-3-((((1r,3S)-3-((2-(2,6-dioxopiperidin-3-yl)-1,3-dioxoisoindolin-5-yl)oxy)cyclobutyl) (methyl)amino)methyl)morpholino)methyl) benzamide] was run?
Answer: The DC50 was under 1 nM.

Question: How did the DC50 turn out when `Cc1cc(O[C@H]2C(C)(C)[C@H](NC(=O)c3ccc(N4CCC(CN(C)[C@H]5CC[C@@H](Oc6ccc7c(c6)C(=O)N(C6CCC(=O)NC6=O)C7=O)C5)CC4)cc3)C2(C)C)cc(C)c1C#N` (stereo partly drawn) [compound 152, N-((1r,3S)-3-(4-cyano-3,5-dimethylphenoxy)-2,2,4,4-tetramethylcyclobutyl)-4-(4-((((1S,3R)-3-((2-(2,6-dioxopiperidin-3-yl)-1,3-dioxoisoindolin-5-yl)oxy)cyclopentyl) (methyl)amino)methyl)piperidin-1-yl)benzamide] was run?
Answer: The DC50 was under 1 nM.

Question: For `Cc1cc(O[C@H]2C(C)(C)[C@H](NC(=O)c3ccc(N4CCC(CN(C)[C@H]5CC[C@H](Oc6ccc7c(c6)C(=O)N(C6CCC(=O)NC6=O)C7=O)C5)CC4)cc3)C2(C)C)cc(C)c1C#N` (stereo partly drawn) [compound 154, N-((1r,3S)-3-(4-cyano-3,5-dimethylphenoxy)-2,2,4,4-tetramethylcyclobutyl)-4-(4-((((1S,3S)-3-((2-(2,6-dioxopiperidin-3-yl)-1,3-dioxoisoindolin-5-yl)oxy)cyclopentyl) (methyl)amino)methyl)piperidin-1-yl)benzamide], which DC50 is on record?
Answer: Its DC50 is under 1 nM.

Question: Which DC50 does the source give for `COCCOCCOCCOCCOCCN(CC1CCN(c2ncc(C(=O)N[C@H]3C(C)(C)[C@H](Oc4cc(C)c(C#N)c(C)c4)C3(C)C)cn2)CC1)[C@H]1C[C@H](Oc2ccc3c(c2)C(=O)N(C2CCC(=O)NC2=O)C3=O)C1` (some centres unmarked) [compound 155, N-((1r,3r)-3-(4-cyano-3,5-dimethylphenoxy)-2,2,4,4-tetramethylcyclobutyl)-2-(4-(2-((1r,3r)-3-((2-(2,6-dioxopiperidin-3-yl)-1,3-dioxoisoindolin-5-yl)oxy)cyclobutyl)-5,8,11,14,17-pentaoxa-2-azaoctadecyl)piperidin-1-yl)pyrimidine-5-carboxamide] here?
Answer: Its DC50 is under 1 nM.

Question: For `CC1(C)[C@H](NC(=O)c2ccc(N3CCC(CN4CCN(c5ccc6c(c5)C(=O)N([C@]5(C#N)CCC(=O)NC5=O)C6)CC4)CC3)cc2)C(C)(C)[C@H]1Oc1ccc(C#N)c(Cl)c1` [compound 156, N-((1r,3r)-3-(3-chloro-4-cyanophenoxy)-2,2,4,4-tetramethylcyclobutyl)-4-(4-((4-(2-((S)-3-cyano-2,6-dioxopiperidin-3-yl)-3-oxoisoindolin-5-yl)piperazin-1-yl)methyl)piperidin-1-yl)benzamide], which DC50 is on record?
Answer: Its DC50 is over 100 nM.

Question: For `COc1cc(O[C@H]2C[C@H](N(CC3CC4(C3)CN(c3cnc(C(=O)N[C@H]5C(C)(C)[C@H](Oc6cc(C)c(C#N)c(C)c6)C5(C)C)cn3)C4)C(C)C)C2)cc2c1C(=O)N(C1CCC(=O)NC1=O)C2=O` (some centres unmarked) [compound 158, N-((1r,3r)-3-(4-cyano-3,5-dimethylphenoxy)-2,2,4,4-tetramethylcyclobutyl)-5-(6-((((1r,3r)-3-((2-(2,6-dioxopiperidin-3-yl)-7-methoxy-1,3-dioxoisoindolin-5-yl)oxy)cyclobutyl) (isopropyl)amino)methyl)-2-azaspiro[3.3]heptan-2-yl)pyrazine-2-carboxamide], which DC50 is on record?
Answer: The DC50 was under 1 nM.

Question: How did the DC50 turn out when `Cc1cc(O[C@H]2C(C)(C)[C@H](NC(=O)c3ccc(N4CCC(CN(C(C)C)[C@H]5C[C@H](Oc6ccc7c(c6)C(=O)N([C@@H]6CCC(=O)NC6=O)C7=O)C5)CC4)cc3)C2(C)C)cc(C)c1C#N` [compound 160, N-((1r,3r)-3-(4-cyano-3,5-dimethylphenoxy)-2,2,4,4-tetramethylcyclobutyl)-4-(4-((((1R,3r)-3-((2-((R)-2,6-dioxopiperidin-3-yl)-1,3-dioxoisoindolin-5-yl)oxy)cyclobutyl) (isopropyl)amino)methyl)piperidin-1-yl)benzamide] was run?
Answer: Its DC50 is under 1 nM.

Question: With `Cc1cc(O[C@H]2C(C)(C)[C@H](NC(=O)c3ccc(N4CCC(CN(C)[C@@H]5CC[C@@H](Oc6ccc7c(c6)C(=O)N(C6CCC(=O)NC6=O)C7=O)C5)CC4)cc3)C2(C)C)cc(C)c1C#N` (stereo partly drawn) [compound 161, N-((1r,3R)-3-(4-cyano-3,5-dimethylphenoxy)-2,2,4,4-tetramethylcyclobutyl)-4-(4-((((1R,3R)-3-((2-(2,6-dioxopiperidin-3-yl)-1,3-dioxoisoindolin-5-yl)oxy)cyclopentyl) (methyl)amino)methyl)piperidin-1-yl)benzamide] as the compound, how does the DC50 read?
Answer: The DC50 was under 1 nM.

Question: How did the DC50 turn out when `Cc1cc(O[C@H]2C(C)(C)[C@H](NC(=O)c3ccc(N4CCC(CN5CCCC[C@H]5COc5ccc6c(c5)C(=O)N(C5CCC(=O)NC5=O)C6=O)CC4)cc3)C2(C)C)cc(C)c1C#N` (stereo partly drawn) [compound 162, N-((1r,3S)-3-(4-cyano-3,5-dimethylphenoxy)-2,2,4,4-tetramethylcyclobutyl)-4-(4-(((2S)-2-(((2-(2,6-dioxopiperidin-3-yl)-1,3-dioxoisoindolin-5-yl)oxy)methyl)piperidin-1-yl)methyl)piperidin-1-yl)benzamide] was run?
Answer: The DC50 was under 1 nM.

Question: Which DC50 does the source give for `Cc1cc(O[C@H]2C(C)(C)[C@H](NC(=O)c3ccc(N4CC5(CC(CN(C(C)C)[C@H]6C[C@H](Oc7ccc8c(c7)C(=O)N(C7CCC(=O)NC7=O)C8=O)C6)C5)C4)nn3)C2(C)C)cc(C)c1C#N` (some centres unmarked) [compound 163, N-((1r,3r)-3-(4-cyano-3,5-dimethylphenoxy)-2,2,4,4-tetramethylcyclobutyl)-6-(6-((((1r,3r)-3-((2-(2,6-dioxopiperidin-3-yl)-1,3-dioxoisoindolin-5-yl)oxy)cyclobutyl) (isopropyl)amino)methyl)-2-azaspiro[3.3]heptan-2-yl)pyridazine-3-carboxamide] here?
Answer: The DC50 was under 1 nM.

— US20260053932A1, “COMPOUNDS AND METHODS FOR THE TARGETED DEGRADATION OF ANDROGEN RECEPTOR AND ASSOCIATED METHODS OF USE” (Arvinas Operations, Inc., priority 2020, published 2026)
